From US20260209233A1, “ANNULATED PYRIDAZINE DERIVATIVE” (Tenvie Therapeutics, Inc., priority 2022, published 2026)
pIC50: −log10 of the molar value. Where a name gives a salt, the structure may show the parent alone.

Molecular target: T1, NLRP3 inflammasome (Homo sapiens, UniProt Q96P20)
T1 construct: endogenous in cells; host or cells: THP-1 cells, PMA-differentiated and stimulated with LPS and ATP
Assay: THP-1 IL-1β production inhibition test
Type: cell-based
Settings: PMA-treated THP-1 cells, LPS 50 ng/ml + ATP 5 mM, 2 hours, IL-1β in supernatant by ELISA
Procedure: Test Example 1: THP-1 IL-1β Production Inhibition Test
PMA (phorbol myristate acetate, SIGMA, P1585) was added to THP-1 cells in an amount of 50 ng/mL to culture the cells for 2 days at 37° C. The culture medium was replaced with a serum-free RPMI-1640 medium, and a compound with a known concentration was added thereto to culture the cells at 37° C. for 15 minutes. LPS (Lipopolysaccharide, SIMGA, L2880) and ATP (Adenosine triphosphate, SIGMA, A2383) were added so that final concentrations become 50 ng/ml and 5 mM, respectively, followed by culturing at 37° C. for 2 hours. The supernatants were collected to measure the concentrations of IL-1β by ELISA (DuoSet ELISA human IL-1β, R&D Systems, DY201). The IL-1β concentrations were plotted against log concentrations of test compounds, and an IC50 value was calculated by sigmoid Emax model nonlinear regression analysis.
Example compounds were confirmed to inhibit NLRP3 inflammasome activation and IL-1β production.

T1 sequence (Q96P20 whole entry): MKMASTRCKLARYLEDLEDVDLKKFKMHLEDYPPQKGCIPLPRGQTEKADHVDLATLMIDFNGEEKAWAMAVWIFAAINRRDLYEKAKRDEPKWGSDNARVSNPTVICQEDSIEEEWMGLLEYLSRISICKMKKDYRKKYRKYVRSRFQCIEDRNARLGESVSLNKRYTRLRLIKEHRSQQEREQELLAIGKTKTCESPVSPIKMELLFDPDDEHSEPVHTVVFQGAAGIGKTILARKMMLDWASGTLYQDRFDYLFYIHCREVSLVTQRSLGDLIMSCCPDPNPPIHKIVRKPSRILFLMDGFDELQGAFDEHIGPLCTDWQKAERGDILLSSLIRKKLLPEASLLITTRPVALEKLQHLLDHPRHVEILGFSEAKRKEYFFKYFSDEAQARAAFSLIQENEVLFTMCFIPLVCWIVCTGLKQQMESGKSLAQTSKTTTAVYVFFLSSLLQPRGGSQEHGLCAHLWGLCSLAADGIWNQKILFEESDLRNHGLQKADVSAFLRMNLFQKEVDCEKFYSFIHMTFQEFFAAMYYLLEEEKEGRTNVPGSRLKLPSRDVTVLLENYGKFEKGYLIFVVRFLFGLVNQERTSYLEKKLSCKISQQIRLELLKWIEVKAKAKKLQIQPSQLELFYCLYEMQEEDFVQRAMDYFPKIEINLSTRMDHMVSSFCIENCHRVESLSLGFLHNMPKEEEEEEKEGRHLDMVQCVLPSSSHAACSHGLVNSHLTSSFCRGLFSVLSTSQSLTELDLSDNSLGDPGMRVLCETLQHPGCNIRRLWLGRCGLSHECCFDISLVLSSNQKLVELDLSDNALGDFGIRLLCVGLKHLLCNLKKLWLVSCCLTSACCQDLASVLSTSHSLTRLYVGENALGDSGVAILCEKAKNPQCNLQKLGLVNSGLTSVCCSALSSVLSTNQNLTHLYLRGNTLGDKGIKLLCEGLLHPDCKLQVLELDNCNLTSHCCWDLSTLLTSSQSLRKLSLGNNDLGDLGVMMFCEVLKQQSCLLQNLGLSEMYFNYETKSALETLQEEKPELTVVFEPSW

Compound	pIC50
COC1CCN([C@@H]2CCCC[C@H]2O)c2nnc(-c3ccc(C(F)(F)F)cc3O)c(C)c21 (stereo partly drawn) [Example 21]	7.80
CC(=O)NCCCCN1CCOCc2c1nnc(-c1ccc(C(F)(F)F)cc1O)c2C [Example 25]	7.40
Cc1c(-c2ccc(C(F)(F)F)cc2O)nnc2c1CCCN2[C@@H]1CCCC[C@H]1O [Example 1, 2-{8-[(1R,2R)-2-hydroxycyclohexyl]-4-methyl-5,6,7,8-tetrahydropyrido[2,3-c]pyridazin-3-yl}-5-(trifluoromethyl)phenol]	7.80
Cc1c(-c2ccc(C(F)(F)F)cc2O)nnc2c1CN(C)[C@H](C)CN2[C@@H]1CCCC[C@H]1O [Example 42]	7.22
CCN1CCN([C@@H]2CCCC[C@H]2O)c2nnc(-c3ccc(C(F)(F)F)cc3O)c(C)c2C1 [Example 41, 2-{6-ethyl-9-[(1R,2R)-2-hydroxycyclohexyl]-4-methyl-6,7,8,9-tetrahydro-5H-pyridazino[3,4-e][1,4]diazepin-3-yl}-5-(trifluoromethyl)phenol]	7.59
Cc1cc(C(F)(F)F)cc(O)c1-c1cc2c(nn1)N([C@@H]1CCCC[C@H]1O)CCC2 [Example 18]	7.82
Cc1c(-c2ccc(C(F)(F)F)cc2O)nnc2c1CCCN2[C@@H]1CCCNC1=O [Example 13]	7.52
Cc1c(-c2ccc(C(F)(F)F)cc2O)nnc2c1CNCCN2[C@@H]1CCCC[C@H]1O [Example 38, 2-{9-[(1R,2R)-2-hydroxycyclohexyl]-4-methyl-6,7,8,9-tetrahydro-5H-pyridazino[3,4-e][1,4]diazepin-3-yl}-5-(trifluoromethyl)phenol]	8.12
Cc1c(-c2ccc(C(F)(F)F)cc2O)nnc2c1CCCCN2[C@@H]1CCCC[C@H]1O [Example 12]	7.36
Cc1c(-c2ccc(OC(F)F)cc2O)nnc2c1CCCN2[C@@H]1CCOC[C@H]1O [Example 29, (3S,4R)-4-{3-[4-(difluoromethoxy)-2-hydroxyphenyl]-4-methyl-6,7-dihydropyrido[2,3-c]pyridazin-8(5H)-yl}oxan-3-ol]	7.89
Cc1c(-c2ccc(C(F)(F)F)cc2O)nnc2c1CCCN2[C@H]1CNC(=O)C1 [Example 15]	6.11
CCN1CCC[C@@H](N2CCCc3c2nnc(-c2ccc(C(F)(F)F)cc2O)c3C)C1 [Example 3, 2-{8-[(3R)-1-ethylpiperidin-3-yl]-4-methyl-5,6,7,8-tetrahydropyrid[2,3-c]pyridazin-3-yl}-5-(trifluoromethyl)phenol]	8.52
Cc1c(-c2ccc(C(F)(F)F)cc2O)nnc2c1COCCN2[C@@H]1CCCC[C@H]1O [Example 4, 2-{9-[(1R,2R)-2-hydroxycyclohexyl]-4-methyl-5,7,8,9-tetrahydropyridazino[3,4-e][1,4]oxaazepin-3-yl}-5-(trifluoromethyl)phenol]	8.17
Cc1c(-c2ccc(C(F)(F)F)cc2O)nnc2c1CCCN2[C@@H]1CC[C@H](C#N)C1 [Example 22]	6.92
Cc1c(-c2ccc(C(F)F)cc2O)nnc2c1CN(C)CCN2[C@@H]1CCCC[C@H]1O [Example 44, 5-(difluoromethyl)-2-{9-[(1R,2R)-2-hydroxycyclohexyl]-4,6-dimethyl-6,7,8,9-tetrahydro-5H-pyridazino[3,4-e][1,4]diazepin-3-yl}phenol]	7.52
Cc1c(-c2ccc(C(F)(F)F)cc2O)nnc2c1CN(C)CCN2[C@@H]1CCCC[C@H]1O [Example 7, 2-{9-[(1R,2R)-2-hydroxycyclohexyl]-4,6-dimethyl-6,7,8,9-tetrahydro-5H-pyridazino[3,4-e][1,4]diazepin-3-yl}-5-(trifluoromethyl)phenol]	7.80
CC(=O)N1CCC[C@@H](N2CCCc3c2nnc(-c2ccc(C(F)(F)F)cc2O)c3C)C1 [Example 8]	7.59
Cc1c(-c2ccc(C(F)(F)F)cc2O)nnc2c1CCCN2[C@@H]1CCCN(C)C1=O [Example 14]	7.66
Cc1c(-c2ccc(C(F)(F)F)cc2O)nnc2c1CN(Cc1ccccc1)CCN2[C@@H]1CCCC[C@H]1O [Example 23]	6.60
COC(=O)N1CCC[C@@H](N2CCCc3c2nnc(-c2ccc(C(F)(F)F)cc2O)c3C)C1 [Example 32, (3R)-3-{3-[2-hydroxy-4-(trifluoromethyl)phenyl]-4-methyl-6,7-dihydropyrido[2,3-c]pyridazin-8(5H)-yl}piperidine-1-methyl carboxylate]	7.02

Compound	pIC50
Cc1c(-c2ccc(C(F)(F)F)cc2O)nnc2c1CCCN2[C@@H]1CCCN(CCO)C1 [Example 27, 2-{8-[(3R)-1-(2-hydroxyethyl)piperidin-3-yl]-4-methyl-5,6,7,8-tetrahydropyrid[2,3-c]pyridazin-3-yl}-5-(trifluoromethyl)phenol dihydrochloride]	7.38
Cc1c(-c2ccc(C(F)(F)F)cc2O)nnc2c1CCCN2[C@@H]1CCCN(C)C1 [Example 2, 2-{4-methyl-8-[(3R)-1-methylpiperidin-3-yl]-5,6,7,8-tetrahydropyrido[2,3-c]pyridazin-3-yl}-5-(trifluoromethyl)phenol]	8.20
CN[C@@H]1CCCC[C@H]1N1CCCc2c1nnc(-c1ccc(C(F)(F)F)cc1O)c2C [Example 17]	6.39
Cc1c(-c2ccc(C(F)(F)F)cc2O)nnc2c1CCN2C[C@@H](C)O [Example 20]	6.70
Cc1ccc(-c2nnc3c(c2C)CCCN3[C@@H]2CCCN(C)C2)c(O)c1 [Example 11]	7.34
Cc1c(-c2ccc(C(F)(F)F)cc2O)nnc2c1CCN2[C@H]1CCNC1=O [Example 5, (3S)-3-{3-[2-hydroxy-4-(trifluoromethyl)phenyl]-4-methyl-5,6-dihydro-7H-pyrrolo[2,3-c]pyridazin-7-yl}pyrrolidin-2-one]	7.89
Cc1c(-c2ccc(C(F)(F)F)cc2O)nnc2c1CCCN2[C@@H]1CCCN(C2CC2)C1 [Example 31, 2-{8-[(3R)-1-cyclopropylpiperidin-3-yl]-4-methyl-5,6,7,8-tetrahydropyrido[2,3-c]pyridazin-3-yl}-5-(trifluoromethyl)phenol]	7.92
Cc1c(-c2ccc(C(F)(F)F)cc2O)nnc2c1CCCN2[C@@H]1CCCN(C(N)=O)C1 [Example 33, (3R)-3-{3-[2-hydroxy-4-(trifluoromethyl)phenyl]-4-methyl-6,7-dihydropyrido[2,3-c]pyridazin-8(5H)-yl}piperidin-1-carboxyamide]	7.26
Cc1c(-c2ccc(OC(F)F)cc2O)nnc2c1CCN2[C@H]1CCNC1=O [Example 45, (3S)-3-{3-[4-(difluoromethoxy)-2-hydroxyphenyl]-4-methyl-5,6-dihydro-7H-pyrrolo[2,3-c]pyridazin-7-yl}pyrrolidin-2-one]	7.55
Cc1c(-c2ccc(C(F)(F)F)cc2O)nnc2c1CNC(=O)N2[C@@H]1CCCC[C@H]1O [Example 37, 8-[(1R,2R)-2-hydroxycyclohexyl]-3-[2-hydroxy-4-(trifluoromethyl)phenyl]-4-methyl-5,8-dihydropyrimido[4,5-c]pyridazin-7 (6H)-one]	6.64
Cc1c(-c2ccc(C(F)(F)F)cc2O)nnc2c1CCCN2[C@@H]1CCN(C)C[C@H]1O [Example 16]	5.72
COc1ccc(-c2nnc3c(c2C)COCCN3[C@@H]2CCCN(C)C2)c(O)c1 [Example 6, 5-methoxy-2-{4-methyl-9-[(3R)-1 methylpiperidin-3-yl]-5,7,8,9-tetrahydropyridazino[3,4-e][1,4]oxaazepin-3-yl}phenol]	7.85
Cc1c(-c2ccc(C(F)(F)F)cc2O)nnc2c1CCN2[C@H]1C[C@@](C)(O)C1 [Example 35, 2-{7-[(1s,3s)-3-hydroxy-3-methylcyclobutyl]-4-methyl-6,7-dihydro-5H-pyrrolo[2,3-c]pyridazin-3-yl}-5-(trifluoromethyl)phenol]	7.36
Cc1c(-c2ccc(C(F)(F)F)cc2O)nnc2c1CCCN2c1cc[nH]n1 [Example 43, 2-[4-methyl-8-(1H-pyrazol-3-yl)-5,6,7,8-tetrahydropyrido[2,3-c]pyridazin-3-yl]-5-(trifluoromethyl)phenol]	6.64
Cc1c(-c2ccc(C(F)(F)F)cc2O)nnc2c1CCCN2[C@@H]1CCCN(S(C)(=O)=O)C1 [Example 34, 2-{8-[(3R)-1-(methansulfonyl)piperidin-3-yl]-4-methyl-5,6,7,8-tetrahydropyrido[2,3-c]pyridazin-3-yl}-5-(trifluoromethyl)phenol]	7.43
CC(=O)N1CCN([C@@H]2CCCC[C@H]2O)c2nnc(-c3ccc(C(F)(F)F)cc3O)c(C)c2C1 [Example 40, 1-{9-[(1R,2R)-2-hydroxycyclohexyl]-3-[2-hydroxy-4-(trifluoromethyl)phenyl]-4-methyl-5,7,8,9-tetrahydro-6H-pyridazino[3,4-e][1,4]diazepin-6-yl}ethan-1-one]	6.72
Cc1c(-c2ccc(OC(F)F)cc2O)nnc2c1CCCN2[C@@H]1CCCC[C@H]1O [Example 28, 5-(difluoromethoxy)-2-{8-[(1R,2R)-2-hydroxycyclohexyl]-4-methyl-5,6,7,8-tetrahydropyrido[2,3-c]pyridazin-3-yl}phenol]	8.09
Cc1c(-c2ccc(OC(F)F)cc2O)nnc2c1COCCN2[C@@H]1CCCC[C@H]1O [Example 30, 5-(difluoromethoxy)-2-{9-[(1R,2R)-2-hydroxycyclohexyl]-4-methyl-5,7,8,9-tetrahydropyridazino[3,4-e][1,4]oxaazepin-3-yl}phenol]	8.02
Cc1c(-c2ccc(C(F)(F)F)cc2O)nnc2c1CCCN2[C@@H]1CCCN(C2COC2)C1 [Example 9]	7.46
